Literature values in US20240226080A1, “Pharmaceutical Mixture Comprising Amorphous Pitolisant” (Alfred E. Tiefenbacher GmbH & Co. KG, priority 2022, published 2024).
Structures can show the parent of a compound that is named as a salt.

Assays:
[1] = 23° C.; listed as oxalate salt
[2] = for Solubility (% w/v) Water room T: room temperature

SMILES	aqueous solubility [1] [mg/mL]	Solubility (% w/v) pH 4.5 [2]	Solubility (% w/v) pH 7.4 [2]	Solubility (% w/v) Water room T [2]
Clc1ccc(CCCOCCCN2CCCCC2)cc1 [Hydrogen oxalate, 1-[3-[3-(4-chlorophenyl)propoxy]propyl]-piperidine]	25	1-3 % w/v	3-10 % w/v	1-3 % w/v
Clc1ccc(CCCOCCCN2CCCCC2)cc1 [Monohydrochloride, 1-[3-[3-(4-chlorophenyl)propoxy]propyl]-piperidine]	–	>100 % w/v	>100 % w/v	>100 % w/v
